Measurements published in patent publication US9999622B2, “Pyrazolothiazole compound and medicine comprising same” (NIPPON SHINYAKU CO., LTD., priority 2014, dated 2018).
Where a name gives a salt, the structure may show the parent alone.

What was measured:
[1] = system: Aspergillus-induced airway inflammation model; experiment: Inhibitory effect on Aspergillus-induced airway inflammation model; assay type: in vivo; conditions: mice; for inhibition in vivo at 10000 µg/mL, 100 mg/kg: Mus musculus, Eosinophil, po, 240 h, 10 mg/mL suspension at 10 mL/kg twice a day Day 0 to Day 9, BALF collected at Day 10, read-out: Inhibition rate on count of invasive eosinophil in BALF (%); for Inhibition rate on count of invasive eosinophil in BALF (%): oral, 10 mg/mL suspension at 10 mL/kg twice a day Day 0 to Day 9, BALF collected at Day 10
Protocol: Aspergillus fumigatus extracts (Greer laboratories, Inc.) were adjusted to 400 μg/mL with PBS. The Aspergillus fumigatus solutions thus prepared were administered to mice as nasal drops (50 μL) on Day 0, Day 1, Day 7 and Day 8. The nasal drop was administered one hour after the administration of test compounds in the morning. The test compound was administered twice a day in the morning and evening of Day 0 to Day 9. The test compound was suspended in 0.5% methylcellulose at 10 mg/mL, and orally administered at the dosage of 10 mL/kg. The bronchoalveolar lavage fluid (BALF) was collected at Day 10, and the total white blood cell count in BALF was measured using Celltac (NIHON KOHDEN). The ratio of eosinophil in total white blood cell was calculated using ADVIA 120 (Siemens Healthcare Diagnostics), and the ratio was multiplied by the total white blood cell count to determine the eosinophil count in BALF. The inhibition rate of the test compound was determined, assuming the inhibitory ratio in the treatment with Aspergillus fumigatus extract and 0.5% methylcellulose as 0% and the inhibitory ratio in the treatment without Aspergillus fumigatus extract but with 0.5% methylcellulose as 100%.

JAK2 = target: T1, JAK2 (Homo sapiens, UniProt O60674); experiment: JAK tyrosine kinase inhibitory activity in the presence of 1 mM ATP (ELISA), JAK2; assay type: biochemical
T1 construct: purchased Carna Biosciences, Inc
T1 sequence (O60674 whole entry): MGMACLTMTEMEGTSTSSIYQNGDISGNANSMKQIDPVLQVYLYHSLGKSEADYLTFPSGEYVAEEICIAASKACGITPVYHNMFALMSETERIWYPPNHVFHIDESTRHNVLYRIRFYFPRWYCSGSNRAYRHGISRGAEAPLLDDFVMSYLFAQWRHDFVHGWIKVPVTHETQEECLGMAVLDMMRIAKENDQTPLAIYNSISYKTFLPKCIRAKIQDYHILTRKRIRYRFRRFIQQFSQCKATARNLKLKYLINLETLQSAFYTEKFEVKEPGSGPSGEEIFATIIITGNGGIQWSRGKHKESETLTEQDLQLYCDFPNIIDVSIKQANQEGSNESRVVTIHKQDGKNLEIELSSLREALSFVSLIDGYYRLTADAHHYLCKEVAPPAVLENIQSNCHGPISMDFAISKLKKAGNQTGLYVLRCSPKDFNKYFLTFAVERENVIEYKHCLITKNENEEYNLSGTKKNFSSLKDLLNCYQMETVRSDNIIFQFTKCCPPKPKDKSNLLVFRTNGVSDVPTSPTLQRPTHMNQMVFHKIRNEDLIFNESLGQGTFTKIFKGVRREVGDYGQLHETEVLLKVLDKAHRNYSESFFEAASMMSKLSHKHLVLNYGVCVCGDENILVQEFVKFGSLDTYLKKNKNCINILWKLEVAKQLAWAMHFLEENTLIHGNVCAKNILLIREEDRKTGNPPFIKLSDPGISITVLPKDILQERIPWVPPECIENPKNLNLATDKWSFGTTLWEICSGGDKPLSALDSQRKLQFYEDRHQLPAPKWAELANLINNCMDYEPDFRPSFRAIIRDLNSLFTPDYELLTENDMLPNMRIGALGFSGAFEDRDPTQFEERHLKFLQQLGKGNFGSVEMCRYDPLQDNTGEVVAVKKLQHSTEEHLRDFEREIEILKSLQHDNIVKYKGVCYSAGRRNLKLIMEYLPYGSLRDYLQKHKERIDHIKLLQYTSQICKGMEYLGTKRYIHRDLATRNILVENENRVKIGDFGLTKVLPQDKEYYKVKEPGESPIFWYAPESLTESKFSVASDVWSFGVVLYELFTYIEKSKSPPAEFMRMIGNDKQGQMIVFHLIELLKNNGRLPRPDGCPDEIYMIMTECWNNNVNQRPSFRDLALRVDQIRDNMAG
How it was run: (§1)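 ELISA read-out: HRP-labelled anti-phosphotyrosine antibody with TMB, absorbance 450 nm, after 1 h kinase reaction at 30 °C in presence of 1 mM ATP. Kinase diluted to 7.5 nM (JAK1) or 0.75 nM (JAK2/JAK3) in Tris-HCl pH 7.5 buffer with DTT; compounds tested in duplicate.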

JAK1 = target: T2, JAK1 (Homo sapiens, UniProt P23458); experiment: JAK tyrosine kinase inhibitory activity in the presence of 1 mM ATP (ELISA), JAK1; assay type: biochemical
T2 construct: purchased Carna Biosciences, Inc
T2 sequence (P23458 whole entry): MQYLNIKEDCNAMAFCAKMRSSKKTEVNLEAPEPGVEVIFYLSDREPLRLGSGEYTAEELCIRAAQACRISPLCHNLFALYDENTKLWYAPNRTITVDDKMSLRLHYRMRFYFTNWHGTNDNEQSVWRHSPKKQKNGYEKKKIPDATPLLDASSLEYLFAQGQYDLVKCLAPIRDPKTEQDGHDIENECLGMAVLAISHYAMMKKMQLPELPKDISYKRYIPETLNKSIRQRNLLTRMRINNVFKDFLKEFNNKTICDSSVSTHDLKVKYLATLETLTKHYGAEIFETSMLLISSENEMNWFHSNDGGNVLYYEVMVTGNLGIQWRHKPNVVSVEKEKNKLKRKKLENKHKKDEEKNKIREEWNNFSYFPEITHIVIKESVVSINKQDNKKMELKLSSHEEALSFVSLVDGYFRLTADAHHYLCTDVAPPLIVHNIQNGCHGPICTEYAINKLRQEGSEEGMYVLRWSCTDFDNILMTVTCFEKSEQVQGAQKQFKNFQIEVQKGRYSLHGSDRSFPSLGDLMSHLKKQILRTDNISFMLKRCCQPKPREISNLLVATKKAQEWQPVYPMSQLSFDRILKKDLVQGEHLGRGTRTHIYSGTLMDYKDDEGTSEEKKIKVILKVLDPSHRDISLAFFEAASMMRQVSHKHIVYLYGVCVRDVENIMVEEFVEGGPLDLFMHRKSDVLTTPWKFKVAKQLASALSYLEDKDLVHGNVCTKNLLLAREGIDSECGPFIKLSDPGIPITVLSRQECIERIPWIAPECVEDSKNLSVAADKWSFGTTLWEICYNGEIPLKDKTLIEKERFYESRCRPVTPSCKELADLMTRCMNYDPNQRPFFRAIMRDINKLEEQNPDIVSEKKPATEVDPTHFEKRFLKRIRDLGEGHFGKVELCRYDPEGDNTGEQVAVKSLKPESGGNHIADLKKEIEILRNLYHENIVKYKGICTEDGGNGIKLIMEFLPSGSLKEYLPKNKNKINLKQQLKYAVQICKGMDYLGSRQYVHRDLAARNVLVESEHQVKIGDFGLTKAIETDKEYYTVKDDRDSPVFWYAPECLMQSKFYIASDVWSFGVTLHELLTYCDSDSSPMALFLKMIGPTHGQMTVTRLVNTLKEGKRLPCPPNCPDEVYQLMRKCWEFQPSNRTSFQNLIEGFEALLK
How it was run: as §1

JAK3 = target: T3, JAK3 (Homo sapiens, UniProt P52333); experiment: JAK tyrosine kinase inhibitory activity in the presence of 1 mM ATP (ELISA), JAK3; assay type: biochemical
T3 construct: purchased Carna Biosciences, Inc
T3 sequence (P52333 1-1124): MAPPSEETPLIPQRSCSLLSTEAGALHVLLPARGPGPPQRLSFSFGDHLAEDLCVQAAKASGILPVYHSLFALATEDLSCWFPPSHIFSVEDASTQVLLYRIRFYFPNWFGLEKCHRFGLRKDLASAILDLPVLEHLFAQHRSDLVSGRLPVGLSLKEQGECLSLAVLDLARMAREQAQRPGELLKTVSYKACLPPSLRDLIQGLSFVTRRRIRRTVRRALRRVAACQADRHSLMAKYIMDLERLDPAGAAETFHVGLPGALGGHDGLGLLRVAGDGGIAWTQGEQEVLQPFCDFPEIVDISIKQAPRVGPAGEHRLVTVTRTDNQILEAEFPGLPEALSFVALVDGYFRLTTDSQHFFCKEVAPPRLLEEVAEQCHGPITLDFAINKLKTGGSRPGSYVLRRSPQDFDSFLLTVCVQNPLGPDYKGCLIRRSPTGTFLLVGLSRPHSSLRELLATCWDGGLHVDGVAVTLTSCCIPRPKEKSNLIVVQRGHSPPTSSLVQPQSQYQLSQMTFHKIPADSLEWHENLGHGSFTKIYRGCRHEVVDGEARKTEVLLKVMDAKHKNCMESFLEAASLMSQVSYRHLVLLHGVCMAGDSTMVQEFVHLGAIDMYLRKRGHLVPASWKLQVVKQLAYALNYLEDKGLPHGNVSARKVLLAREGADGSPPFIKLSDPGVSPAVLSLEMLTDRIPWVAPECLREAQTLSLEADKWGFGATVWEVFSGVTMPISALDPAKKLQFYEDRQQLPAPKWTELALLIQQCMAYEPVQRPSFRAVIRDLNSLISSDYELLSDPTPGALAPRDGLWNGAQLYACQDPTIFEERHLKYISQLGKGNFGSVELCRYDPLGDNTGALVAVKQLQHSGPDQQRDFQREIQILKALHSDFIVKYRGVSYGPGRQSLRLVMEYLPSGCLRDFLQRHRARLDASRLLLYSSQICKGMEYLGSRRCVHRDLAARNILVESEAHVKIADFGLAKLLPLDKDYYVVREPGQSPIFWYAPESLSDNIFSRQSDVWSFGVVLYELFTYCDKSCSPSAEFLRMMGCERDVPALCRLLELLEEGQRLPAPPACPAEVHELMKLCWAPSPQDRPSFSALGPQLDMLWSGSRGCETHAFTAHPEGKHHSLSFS
How it was run: as §1

Structure (SMILES) | inhibition in vivo at 10000 µg/mL, 100 mg/kg [1] [%] | IC50 (JAK2) [nM] | IC50 (JAK1) [nM] | IC50 (JAK3) [nM] | Inhibition rate on count of invasive eosinophil in BALF (%) ([1]; hydrochloride) | Inhibition rate on count of invasive eosinophil in BALF (%) [1] [%]
CC[C@@H](C)Nc1cc(C(=O)N2CCC(NC(=O)OC)CC2)nc(-c2cnn3ccsc23)n1 [Example 126, Methyl [1-({6-[(2R)-butan-2-ylamino]-2-(pyrazolo[5,1-b][1,3]thiazol-7-yl)pyrimidin-4-yl}carbonyl)piperidin-4-yl]carbamate] | 57 | > 10000 | 820 | > 10000 |  | 
CC(C)OC(=O)NC1CCN(C(=O)c2cc(N[C@@H](C)C3CC3)nc(-c3cnn4ccsc34)n2)CC1 [Example 41, Propan-2-yl (1-{[6-{[(1S)-1-cyclopropylethyl]amino}-2-(pyrazolo[5,1-b][1,3]thiazol-7-yl)pyrimidin-4-yl]carbonyl}piperidin-4-yl)carbamate] | 51 | 2700 | 96 | > 10000 |  | 
COC(=O)NC1CCN(C(=O)c2cc(N[C@@H](C)C(C)C)nc(-c3cnn4ccsc34)n2)CC1 [Example 25, Methyl (l-{[6-{[(2S)-3-methylbutan-2-yl]amino}-2-(pyrazolo[5,1-b][1,3]thiazol-7-yl)pyrimidin-4-yl]carbonyl}piperidin-4-yl)carbamate hydrochloride] | 30 | 800 | 200 | 2000 |  | 
C[C@@H](Nc1cc(C(=O)N2CCC(NC(=O)OCC(F)F)CC2)nc(-c2cnn3ccsc23)n1)C(C)(C)C [Example 97, 2,2-Difluoroethyl (1-{[6-{[(2R)-3,3-dimethylbutan-2-yl]amino}-2-(pyrazolo[5,1-b][1,3]thiazol-7-yl)pyrimidin-4-yl]carbonyl}piperidin-4-yl)carbamate hydrochloride] | 43 | 1300 | 210 | 2700 |  | 
CCOC(=O)NC1CCN(C(=O)c2cc(N[C@H](C)C3CC3)nc(-c3cnn4ccsc34)n2)CC1 [Example 74, Ethyl (1-{[6-{[(1R)-1-cycloproropylethyl]amino}-2-(pyrazolo[5,1-b][1,3]thiazol-7-yl)pyrimidin-4-yl]carbonyl}piperidin-4-yl)carbamate hydrochloride] |  | 3100 | 95 | 2600 | 34 | 
COC(=O)NC1CCN(C(=O)c2cc(NCC(C)(C)C)nc(-c3cnn4ccsc34)n2)CC1 [Example 87, Methyl [1-({6-[(2,2-dimethylpropyl)amino]-2-(pyrazolo[5,1-b][1,3]thiazol-7-yl)pyrimidin-4-yl}carbonyl)piperidin-4-yl]carbamate hydrochloride] | 24 | 1600 | 250 | 9500 |  | 
CC(C)(C)Nc1cc(C(=O)N2CCC(O)CC2)nc(-c2cnn3ccsc23)n1 [Example 58, [6-(tert-Butylamino)-2-(pyrazolo[5,1-b][1,3]thiazol-7-yl)pyrimidin-4-yl](4-hydroxypiperidin-1-yl)methanone] | 37 | 2900 | 400 | > 10000 |  | 
CCC(CC)Nc1cc(C(=O)N2CCC(O)CC2)nc(-c2cnn3ccsc23)n1 [Example 81, (4-Hydroxypiperidin-1-yl) [6-(pentan-3-ylamino)-2-(pyrazolo[5,1-b][1,3]thiazol-7-yl)pyrimidin-4-yl]methanone hydrochloride] | 43 | 2200 | 1600 | 3300 |  | 
COC(=O)NC1CCN(C(=O)c2cc(N[C@@H](C)C(C)(C)C)nc(-c3cnn4ccsc34)n2)CC1 [Example 22, Methyl (1-{[6-{[(2S)-3,3-dimethylbutan-2-yl]amino}-2-(pyrazolo[5,1-b][1,3]thiazol-7-yl)pyrimidin-4 yl]carbonyl}piperidin-4-yl)carbamate] | 57 | 800 | 130 | 3700 |  | 
CCOC(=O)NC1CCN(C(=O)c2cc(N[C@H](C)C3CC3)nc(-c3cnn4ccsc34)n2)CC1 [Example 73, Ethyl (1-{[6-{[(1R)-1-cyclopropylethyl]amino}-2-(pyrazolo[5,1-b][1,3]thiazol-7-yl)pyrimidin-4-yl]carbonyl}piperidin-4-yl)carbamate] |  | 3200 | 73 | 2200 |  | 64
C[C@@H](Nc1cc(C(=O)N2CCC(NC(=O)C3CC3)CC2)nc(-c2cnn3ccsc23)n1)C(C)(C)C [Example 16, N-(1-{[6-{[(2R)-3,3-Dimethylbutan-2-yl]amino}-2-(pyrazolo[5,1-b][1,3]thiazol-7-yl)pyrimidin-4-yl]carbonyl}piperidin-4-yl)cyclopropanecarboxamide] | 33 | 2200 | 53 | 2200 |  | 
C[C@H](Nc1cc(C(=O)N2CCC(O)CC2)nc(-c2cnn3ccsc23)n1)C(C)(C)C [Example 23, [6-{[(2S)-3,3-Dimethylbutan-2-yl]amino}-2-(pyrazolo[5,1-b][1,3]thiazol-7-yl)pyrimidin-4-yl](4-hydroxypiperidin-1-yl)methanone] | 31 | 870 | 860 | 3300 |  | 
C[C@H](Nc1cc(C(=O)N2CCC(NC(=O)C3CC3)CC2)nc(-c2cnn3ccsc23)n1)C1CC1 [Example 1, N-(1-{[6-{[(1S)-1-Cyclopropylethyl]amino}-2-(pyrazolo[5,1-b][1,3]thiazol-7-yl)pyrimidin-4-yl]carbonyl}piperidin-4-yl)cyclopropanecarboxamide hydrochloride] | 43 | 3400 | 52 | 3400 |  | 
COC(=O)NC1CCN(C(=O)c2cc(N[C@H](C)C(C)C)nc(-c3cnn4ccsc34)n2)CC1 [Example 24, Methyl (1-{[6-{[(2R)-3-methylbutan-2-yl]amino}-2-(pyrazolo[5,1-b][1,3]thiazol-7-yl)pyrimidin-4-yl]carbonyl}piperidin-4-yl)carbamate hydrochloride] | 35 | 1500 | 290 | 4200 |  | 
